Results reported in ChEMBL document CHEMBL5214969, “Synthesis and evaluation of 2,9-disubstituted-1,10-phenanthroline derivatives as G-quadruplex binders” (Bioorg Med Chem, 2022).
Blank lines part the entries; values can stand above or below the molecule they belong to. The source made the active and inactive calls. The rule behind the calls is not given here.

How the values were obtained:
Quadruplex DNA [1] = assay: Binding affinity to human G-quadruplex telomeric DNA F25CebT (5'-duplex FAM-AGGGTGGGTGTAAGTGTGGGTGGGT-TAM-3') assessed as stabilization by measuring change in melting temperature at 5 uM by FRET melting assay; assay type: nucleic-acid assay
Quadruplex DNA [2] = assay: Binding affinity to human G-quadruplex telomeric DNA F21T (5'-duplex FAM-GGGTTAGGGTTAGGGTTAGGG-TAM-3') assessed as stabilization by measuring change in melting temperature at 5 uM by FRET melting assay; assay type: nucleic-acid assay
A549 = assay: Antiproliferative activity against human A549 cells assessed as cell viability at 10 uM after 48 hrs by MTT assay; assay type: functional; settings: for viability at 10 µM: read-out: Activity
NCI-H1299 = assay: Antiproliferative activity against human NCI-H1299 cells assessed as cell viability at 10 uM after 48 hrs by MTT assay; assay type: functional
NHDF = assay: (§1) Cytotoxicity against human NHDF cells assessed as cell viability at 10 uM after 48 hrs by MTT assay; assay type: toxicity, cell-based; settings: nhdf, 48 h, 10 µM
Quadruplex DNA [3] = assay: Binding affinity to G-quadruplex telomeric DNA 22AG (5'-duplex AGGGTTAGGGTTAGGGTTAGGG-3') (unknown origin) assessed as stabilization by measuring change in melting temperature at 5 M by circular dichroism (CD) spectroscopy; assay type: nucleic-acid assay
Quadruplex DNA [4] = assay: Binding affinity to G-quadruplex telomeric DNA 22AG (5'-duplex AGGGTTAGGGTTAGGGTTAGGG-3') (unknown origin) assessed as stabilization by measuring change in melting temperature at 1 M by circular dichroism (CD) spectroscopy; assay type: nucleic-acid assay
Quadruplex DNA [5] = assay: Binding affinity to G-quadruplex telomeric DNA 22CTA (5'-duplex AGGGCTAGGGCTAGGGCTAGGG-3') (unknown origin) assessed as stabilization by measuring change in melting temperature at 3 M by circular dichroism (CD) spectroscopy; assay type: nucleic-acid assay
Quadruplex DNA [6] = assay: Binding affinity to G-quadruplex telomeric DNA 26ceb (5'-duplex AAGGGTGGGTGTAAGTGTGGGTGGGT-3') (unknown origin) assessed as stabilization by measuring change in melting temperature at 1 M by circular dichroism (CD) spectroscopy; assay type: nucleic-acid assay
Quadruplex DNA [7] = assay: Binding affinity to G-quadruplex telomeric DNA 22CTA (5'-duplex AGGGCTAGGGCTAGGGCTAGGG-3') (unknown origin) assessed as stabilization by measuring change in melting temperature at 5 M by circular dichroism (CD) spectroscopy; assay type: nucleic-acid assay
Quadruplex DNA [8] = assay: Binding affinity to G-quadruplex telomeric DNA 22AG (5'-duplex AGGGTTAGGGTTAGGGTTAGGG-3') (unknown origin) assessed as stabilization by measuring change in melting temperature at 3 M by circular dichroism (CD) spectroscopy; assay type: nucleic-acid assay
Quadruplex DNA [9] = assay: Binding affinity to G-quadruplex telomeric DNA 26ceb (5'-duplex AAGGGTGGGTGTAAGTGTGGGTGGGT-3') (unknown origin) assessed as stabilization by measuring change in melting temperature at 5 M by circular dichroism (CD) spectroscopy; assay type: nucleic-acid assay
Quadruplex DNA [10] = assay: Binding affinity to G-quadruplex telomeric DNA 26ceb (5'-duplex AAGGGTGGGTGTAAGTGTGGGTGGGT-3') (unknown origin) assessed as stabilization by measuring change in melting temperature at 3 M by circular dichroism (CD) spectroscopy; assay type: nucleic-acid assay
Quadruplex DNA [11] = assay: Binding affinity to human G-quadruplex telomeric DNA F21CTAT (5'-duplex FAM-GGGCTAGGGCTAGGGCTAGGG-TAM-3') assessed as stabilization by measuring change in melting temperature at 5 uM by FRET melting assay; assay type: nucleic-acid assay
Quadruplex DNA [12] = assay: Binding affinity to G-quadruplex telomeric DNA 22AG (5'-duplex AGGGTTAGGGTTAGGGTTAGGG-3') (unknown origin) assessed as stabilization by measuring change in melting temperature at 0.5 M by circular dichroism (CD) spectroscopy; assay type: nucleic-acid assay
Quadruplex DNA [13] = assay: Binding affinity to G-quadruplex telomeric DNA 26ceb (5'-duplex AAGGGTGGGTGTAAGTGTGGGTGGGT-3') (unknown origin) assessed as stabilization by measuring change in melting temperature at 0.5 M by circular dichroism (CD) spectroscopy; assay type: nucleic-acid assay
Quadruplex DNA [14] = assay: Binding affinity to G-quadruplex telomeric DNA 22CTA (5'-duplex AGGGCTAGGGCTAGGGCTAGGG-3') (unknown origin) assessed as stabilization by measuring change in melting temperature at 1 M by circular dichroism (CD) spectroscopy; assay type: nucleic-acid assay
Quadruplex DNA [15] = assay: Binding affinity to G-quadruplex telomeric DNA 22CTA (5'-duplex AGGGCTAGGGCTAGGGCTAGGG-3') (unknown origin) assessed as stabilization by measuring change in melting temperature at 0.5 M by circular dichroism (CD) spectroscopy; assay type: nucleic-acid assay
[16] = as §1; assay type: toxicity, cell-based; settings: NHDF cells, read-out: Activity
Quadruplex DNA [17] = assay: Binding affinity to G-quadruplex telomeric DNA FdxT (5'-duplex FAM-TATAGCTAT-PEG-TATAGCTATA-TAM-3') assessed as stabilization by measuring change in melting temperature at 5 uM by FRET melting assay; assay type: nucleic-acid assay

Structure (SMILES): CC(C)(C)OC(=O)NCCNCc1ccc2ccc3ccc(CNCCNC(=O)OC(C)(C)C)nc3c2n1
- ΔTm (Quadruplex DNA [1]): 0.9 °C
- ΔTm (Quadruplex DNA [2]): 1.2 °C

Structure (SMILES): COc1ccc(/N=C/c2ccc3ccc4ccc(/C=N/c5ccc(OC)cc5)nc4c3n2)cc1
- ΔTm (Quadruplex DNA [1]): 0.7 °C
- ΔTm (Quadruplex DNA [2]): 0.8 °C

Structure (SMILES): NCCNCc1ccc2ccc3ccc(CNCCN)nc3c2n1.O=C(O)C(F)(F)F.O=C(O)C(F)(F)F.O=C(O)C(F)(F)F.O=C(O)C(F)(F)F
- Activity (NHDF): Toxic
- ΔTm (Quadruplex DNA [3]): 3.5 °C
- ΔTm (Quadruplex DNA [4]): 2.1 °C
- ΔTm (Quadruplex DNA [5]): 1.9 °C
- ΔTm (Quadruplex DNA [6]): 2.1 °C
- ΔTm (Quadruplex DNA [1]): 7.8 °C
- ΔTm (Quadruplex DNA [7]): 2.1 °C
- ΔTm (Quadruplex DNA [8]): 3.4 °C
- ΔTm (Quadruplex DNA [9]): 7.6 °C
- ΔTm (Quadruplex DNA [2]): 12 °C
- ΔTm (Quadruplex DNA [10]): 5.4 °C
- ΔTm (Quadruplex DNA [11]): 5.2 °C
- ΔTm (Quadruplex DNA [12]): 0.7 °C
- ΔTm (Quadruplex DNA [13]): 0.9 °C
- ΔTm (Quadruplex DNA [14]): 1.3 °C
- ΔTm (Quadruplex DNA [15]): 0.6 °C

Structure (SMILES): CC(C)(C)OC(=O)NCC/N=C/c1ccc2ccc3ccc(/C=N/CCNC(=O)OC(C)(C)C)nc3c2n1
- ΔTm (Quadruplex DNA [1]): 0.6 °C
- ΔTm (Quadruplex DNA [2]): 0.6 °C

Structure (SMILES): CC(C)(C)OC(=O)NCCNC(=O)c1ccc2ccc3ccc(C(=O)NCCNC(=O)OC(C)(C)C)nc3c2n1
- ΔTm (Quadruplex DNA [1]): 0.8 °C
- ΔTm (Quadruplex DNA [2]): 0.7 °C
- Activity (A549): Active
- Activity (NCI-H1299): Active

Structure (SMILES): O=C(N/N=C/c1c(O)ccc2ccccc12)c1ccc2ccc3ccc(C(=O)N/N=C/c4c(O)ccc5ccccc45)nc3c2n1
- ΔTm (Quadruplex DNA [1]): 2.6 °C
- ΔTm (Quadruplex DNA [2]): 1 °C

Structure (SMILES): C[n+]1cc(NC(=O)c2ccc3ccc4ccc(C(=O)Nc5cc6ccccc6[n+](C)c5)nc4c3n2)cc2ccccc21
- ΔTm (Quadruplex DNA [1]): > 30 °C
- ΔTm (Quadruplex DNA [17]): 0.6 °C
- ΔTm (Quadruplex DNA [2]): > 30 °C
- ΔTm (Quadruplex DNA [11]): > 30 °C

The next lines start with results.

- ΔTm (Quadruplex DNA [1]): 1.2 °C
- ΔTm (Quadruplex DNA [2]): 1.8 °C
Structure (SMILES): NNC(=O)c1ccc2ccc3ccc(C(=O)NN)nc3c2n1
- Activity (A549): Active
- Activity (NCI-H1299): Active

- ΔTm (Quadruplex DNA [1]): 1.2 °C
- ΔTm (Quadruplex DNA [2]): 1.5 °C
Structure (SMILES): CC/N=C/c1ccc2ccc3ccc(/C=N/CC)nc3c2n1

- ΔTm (Quadruplex DNA [3]): 1.4 °C
- ΔTm (Quadruplex DNA [4]): 0.3 °C
- ΔTm (Quadruplex DNA [5]): 2.9 °C
- ΔTm (Quadruplex DNA [6]): 4.6 °C
- ΔTm (Quadruplex DNA [1]): 1.8 °C
- ΔTm (Quadruplex DNA [7]): 4.3 °C
- ΔTm (Quadruplex DNA [8]): 2.5 °C
- ΔTm (Quadruplex DNA [9]): 11.7 °C
- ΔTm (Quadruplex DNA [2]): 7.2 °C
- ΔTm (Quadruplex DNA [10]): 9.7 °C
- ΔTm (Quadruplex DNA [11]): 2.9 °C
- ΔTm (Quadruplex DNA [12]): 0.5 °C
- ΔTm (Quadruplex DNA [13]): 3.4 °C
- ΔTm (Quadruplex DNA [14]): 1.3 °C
- ΔTm (Quadruplex DNA [15]): 0.4 °C
Structure (SMILES): NCCNC(=O)c1ccc2ccc3ccc(C(=O)NCCN)nc3c2n1
- viability at 48 h, 10 µM [16]: 75.1%
- viability at 10 µM (A549): 24.5%
- Activity (NCI-H1299): Active

- ΔTm (Quadruplex DNA [2]): 5.3 °C
Structure (SMILES): CCCCCCNCc1ccc2ccc3ccc(CNCCCCCC)nc3c2n1
- viability at 48 h, 10 µM [16]: 22.4%
- viability at 10 µM (A549): 27.4%
- viability at 10 µM (NCI-H1299; read-out: Activity): 42.9%

- ΔTm (Quadruplex DNA [1]): 0.9 °C
- ΔTm (Quadruplex DNA [2]): 1.1 °C
Structure (SMILES): OCC/N=C/c1ccc2ccc3ccc(/C=N/CCO)nc3c2n1

- ΔTm (Quadruplex DNA [1]): 0.7 °C
- ΔTm (Quadruplex DNA [2]): 1.1 °C
Structure (SMILES): CCCCCC/N=C/c1ccc2ccc3ccc(/C=N/CCCCCC)nc3c2n1
- Activity (NHDF): Non-Toxic

- ΔTm (Quadruplex DNA [1]): 0.4 °C
- ΔTm (Quadruplex DNA [2]): 1.2 °C
Structure (SMILES): OCCNCc1ccc2ccc3ccc(CNCCO)nc3c2n1

- ΔTm (Quadruplex DNA [1]): 1.7 °C
- ΔTm (Quadruplex DNA [2]): 0.4 °C
Structure (SMILES): O=C1NCCNCCNC(=O)c2ccc3ccc4ccc1nc4c3n2
- Activity (A549): Active
- Activity (NCI-H1299): Active

- ΔTm (Quadruplex DNA [3]): 1.1 °C
- ΔTm (Quadruplex DNA [4]): 0.9 °C
- ΔTm (Quadruplex DNA [5]): 2.6 °C
- ΔTm (Quadruplex DNA [6]): 2.3 °C
- ΔTm (Quadruplex DNA [1]): 3.8 °C
- ΔTm (Quadruplex DNA [7]): 3.1 °C
- ΔTm (Quadruplex DNA [8]): 1.5 °C
- ΔTm (Quadruplex DNA [9]): 8.1 °C
- ΔTm (Quadruplex DNA [2]): 9.2 °C
- ΔTm (Quadruplex DNA [10]): 5.9 °C
- ΔTm (Quadruplex DNA [11]): 4.1 °C
- ΔTm (Quadruplex DNA [12]): 0.5 °C
- ΔTm (Quadruplex DNA [13]): 1.1 °C
- ΔTm (Quadruplex DNA [14]): 1.8 °C
- ΔTm (Quadruplex DNA [15]): 0.9 °C
Structure (SMILES): COc1ccc(NCc2ccc3ccc4ccc(CNc5ccc(OC)cc5)nc4c3n2)cc1
- Activity (NHDF): Toxic

- ΔTm (Quadruplex DNA [1]): 0.4 °C
- ΔTm (Quadruplex DNA [2]): 0.5 °C
Structure (SMILES): O=C1NCCOCCOCCNC(=O)c2ccc3ccc4ccc1nc4c3n2
- Activity (A549): Active
- Activity (NCI-H1299): Active
